Results published in US10752588B2 (The Broad Institute, Inc., priority 2014, dated 2020).
Converted amounts (≈) assume the structure as drawn.

Tests used:
[1] = Microsomal stability, mouse
[2] = Solubility in PBS; format: physicochemical; conditions: aqueous buffer
[3] = target: T1, human D2R/β-arrestin (Homo sapiens (Human), UniProt P14416); assay: β-Arrestin agonist assay (PathHunter); format: cell-based; conditions: CHO-K1 cell line expressing human D2R/β-arrestin
In short: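 Readout follows addition of Buffer:Emerald II:Galactor-Star reagent (19:5:1) to agonist-treated plates, measured as luminescence or fluorescence.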

[4] = Microsomal stability, rat; format: in vitro ADME
[5] = target: T1, human D2R/β-arrestin; assay: cell-based; conditions: cAMP Antagonist
[6] = target: T1, human D2R/β-arrestin; assay: cell-based; conditions: β-arrestin Antagonist
[7] = target: T1, human D2R/β-arrestin; assay: Gi/cAMP agonist assay (Lance Ultra cAMP, Forskolin); format: cell-based; conditions: CHO-K1 cell line expressing human D2R/β-arrestin
In short: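 Read-out was Lance Ultra competitive TR-FRET (Eu-cAMP tracer plus ULight-anti-cAMP) following forskolin-induced cAMP production. Before forskolin stimulation, compounds were pin-transferred onto the seeded cells for 10 min at 37 °C.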

[8] = Microsomal stability, human; format: in vitro ADME
[9] = Plasma stability, mouse
[10] = target: D2 (Homo sapiens (Human), UniProt P14416); assay: D2 radioligand binding assay
[11] = Plasma stability, human; format: in vitro ADME
[12] = Plasma stability, rat; format: in vitro ADME
[13] = CHO-K1 cell line expressing human D2R/β-arrestin, quinpirole used as agonist

T1 sequence (P14416 whole entry): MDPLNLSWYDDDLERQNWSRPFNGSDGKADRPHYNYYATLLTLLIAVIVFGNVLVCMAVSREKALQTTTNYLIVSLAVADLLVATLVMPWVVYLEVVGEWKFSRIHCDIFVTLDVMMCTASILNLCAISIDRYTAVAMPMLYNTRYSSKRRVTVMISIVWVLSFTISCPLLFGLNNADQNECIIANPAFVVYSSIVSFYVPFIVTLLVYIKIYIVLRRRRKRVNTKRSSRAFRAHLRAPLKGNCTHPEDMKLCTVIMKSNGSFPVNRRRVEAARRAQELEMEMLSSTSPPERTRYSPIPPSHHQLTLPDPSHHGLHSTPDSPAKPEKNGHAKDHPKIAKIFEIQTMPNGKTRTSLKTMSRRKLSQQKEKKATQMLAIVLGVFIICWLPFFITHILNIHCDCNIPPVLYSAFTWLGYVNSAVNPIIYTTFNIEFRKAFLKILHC
Chain of D2 (P14416 whole entry): as above

Question: For O=C(NC(c1ccc(Cl)cc1)c1ccccn1)C1CCN(CCOc2cccnc2)CC1 (stereo not shown) [Compound 10], which “Microsomal Stability: % remaining after 60 minutes” value (“Microsomal Stability: % remaining” for short) [1] is on record?
Answer: Its value is 44%.

Question: What about the solubility [2] of the same compound?
Answer: The solubility was > 500 µM.

Question: And the EC50 [3]?
Answer: The EC50 was > 30000 nM.

Question: What about the “Microsomal Stability: % remaining” value [4] of the same compound?
Answer: The value was 57%.

Question: And the IC50 [5, 13]?
Answer: Its IC50 is > 30000 nM.

Question: What about the IC50 [6, 13] of the same compound?
Answer: The IC50 was 10000 to 30000 nM.

Question: What about the EC50 [7] of the same compound?
Answer: The EC50 was 100 to 1000 nM.

Question: What about the “Microsomal Stability: % remaining” value [8] of the same compound?
Answer: The value was 75%.

Question: Which “Microsomal Stability: % remaining” value [1] does the source give for COc1cccc(C(NCC2CCN(CCOc3ccccc3F)CC2)c2ccccn2)c1 (stereo not shown) [Compound 88, N-((1-(2-(2-fluorophenoxy)ethyl)piperidin-4-yl)methyl)-1-(3-methoxyphenyl)-1-(pyridin-2-yl)methanamine] here?
Answer: Its value is “m1%”.

Question: What about the solubility [2] of the same compound?
Answer: The solubility was 461 µM (≈ 207 µg/mL).

Question: What about the EC50 [3] of the same compound?
Answer: Its EC50 is > 30000 nM.

Question: And the IC50 [5, 13]?
Answer: The IC50 was 100 to 1000 nM.

Question: And the IC50 [6, 13]?
Answer: Its IC50 is 100 to 1000 nM.

Question: And the EC50 [7]?
Answer: The EC50 was < 100 nM.

Question: What does the source list for CC(C)N(CC1CCN(CCOc2ccccc2)CC1)C(c1ccc(Cl)cc1)c1ccccn1 (stereo not shown) [Compound 103, N-((4-chlorophenyl)(pyridin-2-yl)methyl)-N-((1-(2-phenoxyethyl)piperidin-4-yl)methyl)propan-2-amine]?
Answer: Microsomal Stability: % remaining after 60 minutes [1]: m1%; Plasma Stability: % remaining after 5 hours [9]: m97%; EC50 [3]: > 30000 nM; IC50 [5]: > 30000 nM; IC50 [6]: < 100 nM; EC50 [7]: < 100 nM

Question: What does the source list for O=C(NC(c1ccc2c(c1)OC(F)(F)O2)c1ccccn1)C1CCN(CCOc2ccccc2F)CC1 (single isomer, unassigned) [Compound 94b, N-((2,2-difluorobenzo[d][1,3]dioxol-5-yl)(pyridin-2-yl)methyl)-1-(2-(2-fluorophenoxy)ethyl)piperidine-4-carboxamide]?
Answer: Microsomal Stability: % remaining after 60 minutes [1]: m26%; EC50 [3]: 100 to 1000 nM; Ki [10]: 100 to 1000 nM; IC50 [5, 13]: > 30000 nM; IC50 [6, 13]: > 30000 nM; EC50 [7]: < 100 nM

Question: For Clc1ccc(C(NCC2CCN(CCOc3ccccc3)CC2)c2ccccn2)cc1 (single isomer, unassigned) [Compound 114a, 1-(4-chlorophenyl)-N-((1-(2-phenoxyethyl)piperidin-4-yl)methyl)-1-(pyridin-2-yl)methanamine], which EC50 [3] is on record?
Answer: The EC50 was > 30000 nM.

Question: And the Ki [10]?
Answer: Its Ki is 100 to 1000 nM.

Question: And the IC50 [5, 13]?
Answer: Its IC50 is < 100 nM.

Question: And the IC50 [6, 13]?
Answer: The IC50 was < 100 nM.

Question: What about the EC50 [7] of the same compound?
Answer: Its EC50 is 100 to 1000 nM.

Question: For CN(CC1CCN(CCOc2ccccc2F)CC1)C(c1ccc(Cl)cc1)c1ccccn1 (stereo not shown) [Compound 72, 1-(4-chlorophenyl)-N-((1-(2-(2-fluorophenoxy)ethyl)piperidin-4-yl)methyl)-N-methyl-1-(pyridin-2-yl)methanamine], which EC50 [3] is on record?
Answer: Its EC50 is > 30000 nM.

Question: What about the Ki [10] of the same compound?
Answer: The Ki was < 100 nM.

Question: And the IC50 [5, 13]?
Answer: Its IC50 is 1000 to 10000 nM.

Question: What about the IC50 [6, 13] of the same compound?
Answer: Its IC50 is < 100 nM.

Question: What about the EC50 [7] of the same compound?
Answer: The EC50 was < 100 nM.

Question: For COc1ccccc1OCCN1CCC(C(=O)NC(c2ccc(Cl)cc2)c2ccccn2)CC1 (stereo not shown) [Compound 109, N-((4-chlorophenyl) (pyridin-2-yl)methyl)-1-(2-(2-methoxyphenoxy)ethyl)piperidine-4-carboxamide], which “Microsomal Stability: % remaining” value [1] is on record?
Answer: The value was 40%.

Question: What about the solubility [2] of the same compound?
Answer: The solubility was > 500 µM.

Question: And the EC50 [3]?
Answer: The EC50 was > 30000 nM.

Question: And the “Microsomal Stability: % remaining” value [4]?
Answer: The value was 57%.

Question: What about the IC50 [5, 13] of the same compound?
Answer: The IC50 was < 100 nM.

Question: What about the IC50 [6, 13] of the same compound?
Answer: Its IC50 is < 100 nM.

Question: And the EC50 [7]?
Answer: Its EC50 is > 30000 nM.

Question: What about the “Microsomal Stability: % remaining” value [8] of the same compound?
Answer: Its value is 59%.

Question: Which “Microsomal Stability: % remaining” value [1] does the source give for O=C(NC(c1ccc(Cl)cc1)c1ccccn1)C1CCN(CCOc2ccc(C(F)(F)F)cc2)CC1 (stereo not shown) [Compound 8, N-((4-chlorophenyl)(pyridin-2-yl)methyl)-1-(2-(4-(trifluoromethyl)phenoxy)ethyl) piperidine-4-carboxamide] here?
Answer: Its value is 53%.

Question: What about the “Plasma Stability: % remaining after 5 hours” value (from here on “Plasma Stability: % remaining”) [9] of the same compound?
Answer: The value was 100%.

Question: And the “Plasma Stability: % remaining” value [11]?
Answer: Its value is 100%.

Question: And the solubility [2]?
Answer: Its solubility is 1.1 µM (≈ 0.57 µg/mL).

Question: And the “Plasma Stability: % remaining” value [12]?
Answer: Its value is 98.1%.

Question: What about the EC50 [3] of the same compound?
Answer: Its EC50 is > 30000 nM.

Question: What about the “Microsomal Stability: % remaining” value [4] of the same compound?
Answer: Its value is 100%.

Question: And the IC50 [5, 13]?
Answer: The IC50 was > 30000 nM.

Question: And the IC50 [6, 13]?
Answer: Its IC50 is 10000 to 30000 nM.

Question: What about the EC50 [7] of the same compound?
Answer: Its EC50 is 10000 to 30000 nM.

Question: And the “Microsomal Stability: % remaining” value [8]?
Answer: Its value is 82%.
